Drawing on PubChem BioAssay AID298 (DTP/NCI, 2004), this text covers T/C for 18 compounds.

This assay deals with MX-1 breast xenograft, intrarenal, nude mice, tumor weight. As to the kind of experiment: NCI In Vivo Anticancer Drug Screen. Data for tumor model Human Mammary Carcinoma MX-1 Xenograft (intrarenal inoculation) in NU/NU BALB/C (nude) mice. The settings on record: endpoint: mean tumor weight change, higher = larger tumour. The procedure, abridged: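 Mice w/ transplanted tumors, drug vs vehicle; endpoint survival or tumor size; value = T/C.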
For orientation: In xenograft studies the graft and the host belong to different species.

Setting [1] is: dose: 600.0 mg/kg/injection, schedule: Q04DX003 (sc), vehicle: Klucel (hydroxypropylcellulose) (HPC).
Where [2] appears, read: dose: 1200.0 mg/kg/injection, schedule: Q04DX003 (sc), vehicle: Klucel (hydroxypropylcellulose) (HPC).
[3] abbreviates: dose: 2400.0 mg/kg/injection, schedule: Q04DX003 (sc), vehicle: Klucel (hydroxypropylcellulose) (HPC).
[4] abbreviates: dose: 25.0 mg/kg/injection, schedule: Q04DX003 (ip), vehicle: saline.
Where [5] appears, read: dose: 50.0 mg/kg/injection, schedule: Q04DX003 (ip), vehicle: saline.

Values joined by “and” are separate entries in the source; they are usually repeats but may differ in a detail not shown here. Equal entries are not always repeated. Results filed as inconclusive are left out.

As for `CC(/C=C/C1OC(=O)C=CC1C)=C\C(C)C/C=C/C(C)=C/C(C)C(=O)C(C)C(O)C(C)C/C(C)=C/C(=O)O` (centres undefined), the T/C is, setting by setting: (dose: 50.0 micrograms/kg/injection, schedule: Q04DX003 (ip), vehicle: alcohol) 104 % of control; (dose: 100.0 micrograms/kg/injection, schedule: Q04DX003 (ip), vehicle: alcohol) 87 % of control; (dose: 200.0 micrograms/kg/injection, schedule: Q04DX003 (ip), vehicle: alcohol) 81 % of control; (dose: 400.0 micrograms/kg/injection, schedule: Q04DX003 (ip), vehicle: alcohol) 111 % of control.
Turning to `N[C@@H](C[C@H]1CCC(=O)[C@@H]2O[C@H]12)C(=O)O`, the T/C runs as follows: (dose: 150.0 mg/kg/injection, schedule: Q04DX003 (ip), vehicle: saline) 94 % of control; (dose: 150.0 mg/kg/injection, schedule: Q04DX003 (ip), vehicle: suspension in saline) 100 % of control; (dose: 300.0 mg/kg/injection, schedule: Q04DX003 (ip), vehicle: saline) 90 % of control; (dose: 300.0 mg/kg/injection, schedule: Q04DX003 (ip), vehicle: suspension in saline) 75 % of control; (dose: 600.0 mg/kg/injection, schedule: Q04DX003 (ip), vehicle: saline) 104 % of control; (dose: 600.0 mg/kg/injection, schedule: Q04DX003 (ip), vehicle: suspension in saline) 82 % of control. Also, the T/C runs as follows: (dose: 1200.0 mg/kg/injection, schedule: Q04DX003 (ip), vehicle: saline) 47 % of control; (dose: 1200.0 mg/kg/injection, schedule: Q04DX003 (ip), vehicle: suspension in saline) 62 % of control.
Take `COc1cc2c(cc1OC)-c1c3c(cc4c1[C@@H](C2)N(C)CC4)OCO3`: the T/C is, setting by setting: (dose: 37.5 mg/kg/injection, schedule: Q04DX003 (ip), vehicle: distilled water + alcohol) 56 % of control; (dose: 75.0 mg/kg/injection, schedule: Q04DX003 (ip), vehicle: distilled water + alcohol) 55 % of control; (dose: 150.0 mg/kg/injection, schedule: Q04DX003 (ip), vehicle: distilled water + alcohol) 68 % of control.
In the case of `O=C1c2cccc(NCCCNCCO)c2C(=O)c2cccc(NCCCNCCO)c21`, the T/C reads like this: (dose: 18.75 mg/kg/injection, schedule: Q04DX003 (ip), vehicle: acid diluted with saline) 89 % of control; (dose: 37.5 mg/kg/injection, schedule: Q04DX003 (ip), vehicle: acid diluted with saline) 171 % of control.
For the compound `CCN(CC)CCn1[nH]c2c3ccc(=O)cc3sc3c(NCCN)ccc1c32`, the T/C reads like this: (dose: 3.12 mg/kg/injection, schedule: Q04DX003 (ip), vehicle: water) 26 % of control and 40 % of control; (dose: 6.25 mg/kg/injection, schedule: Q04DX003 (ip), vehicle: water) 35 % of control and 38 % of control and 42 % of control; (dose: 25.0 mg/kg/injection, schedule: Q04DX003 (ip), vehicle: water) 50 % of control.
Turning to `CC1=C/C(O)CC(=O)Cc2nc(co2)C(=O)N2CCC=C2C(=O)OC(C(C)C)C(C)/C=C\C(=O)NC/C=C\1` (centres undefined), the T/C is 104 % of control under setting [1], 92 % of control under setting [2] and 88 % of control under setting [3].
For `C[n+]1ccc2cc(N)c3c4ccccc4sc3c2c1`, the T/C (dose: 12.5 mg/kg/injection, schedule: Q04DX003 (sc), vehicle: saline with Tween-80) is 96 % of control and the T/C (dose: 25.0 mg/kg/injection, schedule: Q04DX003 (sc), vehicle: saline with Tween-80) was 100 % of control.
As to `COc1c2c(c(O)c3c4c(c(C)cc13)C1OC3(C(OC)OC5CC(C)(O)C(OC6CC(C)(O)C(O)C(C)O6)C(C)O5)OC1C(OC)(O4)C31CO1)C(=O)C(O)CC2OC1CC(C)(O)C(OC(C)=O)C(C)O1` (centres undefined), the T/C runs as follows: (dose: 0.06 mg/kg/injection, schedule: Q04DX003 (ip), vehicle: saline) 61 % of control; (dose: 0.5 mg/kg/injection, schedule: Q04DX003 (ip), vehicle: saline) 45 % of control.
As for `O=P1(N(CCCl)CCCl)NCCCO1` (centres undefined), the T/C was 3 % of control (dose: 25.0 mg/kg/injection, schedule: Q01DX010 (sc), vehicle: saline); 1 % of control and -23 % of control under setting [4]; -11 % of control (dose: 50.0 mg/kg/injection, schedule: Q01DX010 (sc), vehicle: saline); -88 % of control and -100 % of control under setting [5]; -95 % of control (dose: 100.0 mg/kg/injection, schedule: Q04DX003 (sc), vehicle: saline); -73 % of control (dose: 200.0 mg/kg/injection, schedule: Q04DX003 (ip), vehicle: saline).
For `O=c1[nH]cc(F)c(=O)[nH]1`, the T/C under setting [5] is 43 % of control.
Consider `O=C1N[C@H]2[C@H](CS[C@H]2CCCCC(=O)N(CCP(c2ccccc2)c2ccccc2)CCP(c2ccccc2)c2ccccc2)N1`, for which the T/C was 108 % of control under setting [1], 97 % of control under setting [2] and 115 % of control under setting [3].
For `O=C(O)CC1C(=O)OC2C3COC(=O)c4cc(O)c(O)c(O)c4-c4c(cc(O)c(O)c4O)C(=O)OC2C(OC(=O)c2cc(O)c(O)c4c2C1C(O)C(=O)O4)C(OC(=O)c1cc(O)c(O)c(O)c1)O3` (centres undefined), the T/C is, setting by setting: under setting [4], 120 % of control; under setting [5], 99 % of control; (dose: 100.0 mg/kg/injection, schedule: Q04DX003 (ip), vehicle: saline) 73 % of control.
Take `CC(C)(C[NH-])C[NH-].[Cl][Pt+2][Cl]`: the T/C by setting is: (dose: 1.5 mg/kg/injection, schedule: Q04DX003 (ip), vehicle: water) 56 % of control; (dose: 6.0 mg/kg/injection, schedule: Q04DX003 (ip), vehicle: water) 2 % of control and 3 % of control.
For the compound `O=S(=O)(c1cccc(N=C=S)c1)c1cccc(N=C=S)c1`, the T/C was 121 % of control (dose: 50.0 mg/kg/injection, schedule: Q04DX003 (ip), vehicle: Klucel (hydroxypropylcellulose) (HPC)); 83 % of control (dose: 100.0 mg/kg/injection, schedule: Q04DX003 (ip), vehicle: Klucel (hydroxypropylcellulose) (HPC)); 82 % of control (dose: 200.0 mg/kg/injection, schedule: Q04DX003 (ip), vehicle: Klucel (hydroxypropylcellulose) (HPC)).
With `N#Cc1c(-c2ccc(F)cc2)c(-c2ccc(F)cc2)nn(CCO)c1=O`, the T/C reads like this: (dose: 50.0 mg/kg/injection, schedule: Q04DX003 (ip), vehicle: distilled water + Tween-80) 109 % of control; (dose: 400.0 mg/kg/injection, schedule: Q04DX003 (ip), vehicle: distilled water + Tween-80) -28 % of control.
On to `CCCCCCCC(=O)OCC(=O)[C@]1(O)Cc2c(O)c3c(c(O)c2[C@@H](OC2CC(N)C(O)C(C)O2)C1)C(=O)c1c(OC)cccc1C3=O` (some centres undefined), for which the T/C runs as follows: (dose: 2.0 mg/kg/injection, schedule: Q01DX010 (ip), vehicle: suspension in saline) 4 % of control; (dose: 2.0 mg/kg/injection, schedule: Q01DX010 (sc), vehicle: saline) 121 % of control; (dose: 2.0 mg/kg/injection, schedule: Q04DX003 (ip), vehicle: saline) 53 % of control; (dose: 4.0 mg/kg/injection, schedule: Q01DX010 (ip), vehicle: suspension in saline) 5 % of control; (dose: 4.0 mg/kg/injection, schedule: Q01DX010 (sc), vehicle: saline) 20 % of control; (dose: 4.0 mg/kg/injection, schedule: Q04DX003 (ip), vehicle: saline) 27 % of control. The T/C was 2 % of control (dose: 8.0 mg/kg/injection, schedule: Q01DX010 (sc), vehicle: saline) and 5 % of control (dose: 8.0 mg/kg/injection, schedule: Q04DX003 (ip), vehicle: saline).
For `COc1cc2cc(c1Cl)N(C)C(=O)C[C@H](OC(=O)[C@H](C)N(C)C(C)=O)[C@]1(C)O[C@H]1[C@H](C)[C@@H]1C[C@@](O)(NC(=O)O1)[C@H](OC)C=C/C=C(\C)C2`, the T/C runs as follows: (dose: 12.5 micrograms/kg/injection, schedule: Q01DX010 (sc), vehicle: Klucel (hydroxypropylcellulose) (HPC)) 152 % of control; (dose: 25.0 micrograms/kg/injection, schedule: Q01DX010 (sc), vehicle: Klucel (hydroxypropylcellulose) (HPC)) 73 % of control; (dose: 50.0 micrograms/kg/injection, schedule: Q01DX010 (sc), vehicle: Klucel (hydroxypropylcellulose) (HPC)) 75 % of control; (dose: 100.0 micrograms/kg/injection, schedule: Q01DX010 (sc), vehicle: Klucel (hydroxypropylcellulose) (HPC)) 14 % of control; (dose: 200.0 micrograms/kg/injection, schedule: Q01DX010 (sc), vehicle: Klucel (hydroxypropylcellulose) (HPC)) -78 % of control.
For the compound `CC(=O)N(C)O`, the T/C reads like this: (dose: 37.5 mg/kg/injection, schedule: Q04DX003 (sc), vehicle: saline with Tween-80) 98 % of control; (dose: 75.0 mg/kg/injection, schedule: Q04DX003 (sc), vehicle: saline with Tween-80) 80 % of control; (dose: 150.0 mg/kg/injection, schedule: Q04DX003 (sc), vehicle: saline with Tween-80) 69 % of control; (dose: 300.0 mg/kg/injection, schedule: Q04DX003 (sc), vehicle: saline with Tween-80) 87 % of control.
